From ChEMBL document CHEMBL3507680, “University of Dundee, Gates Library screen for HepG2 cell viability” come the findings set out here.

The data set is described as follows: Human HepG2 cell viability assay in 384 well format. Type of data set: toxicity, cell-based. Set-up: dose 125 nL, time 70.5 hour; concentration not given beside the values. Particulars: HepG2 cells, read-out: Inhibition.

For the compound `Cc1cccc(-c2nnn3c2COC(CNS(=O)(=O)C2CC2)C3)c1` (centres undefined), the cytotoxicity at 70.5 h is -9.41%.

Take `O=C(c1cccnc1)N1C[C@@H]2CN(CCN3CCCC3)C(=O)[C@@H]2C1`: the cytotoxicity at 70.5 h was -6.24%.

For the compound `Cc1nn(CCNS(=O)(=O)NCc2ccccc2)c(C)c1Cl`, the cytotoxicity at 70.5 h was -6.81%.

Take `CCn1ncnc1CN1CCc2[nH]cnc2C1c1ccccn1` (centres undefined): the cytotoxicity at 70.5 h was determined as 14.3%.

With `COCCN(C)C(C(=O)O)c1ccc2ccccc2c1` (centres undefined), the cytotoxicity at 70.5 h came to 6.21%.

Regarding `Cc1ncc2c(c1-c1noc(-c3cscn3)n1)CCNC2`, the cytotoxicity at 70.5 h was determined as 7.48%.

For the compound `O=C1CCC2(CCNCC2)CN1Cc1nnc2ccccn12`, the cytotoxicity at 70.5 h is -5.01%.

For the compound `Cc1nc(NC(=O)N2CCCC(C(C)(C)O)C2)nn1C` (centres undefined), the cytotoxicity at 70.5 h was -6.42%.

For `CCc1nc(C)c([C@H]2CN(C)C[C@@H]2C(=O)NCc2ccccc2OC)[nH]1`, the cytotoxicity at 70.5 h was -2.21%.

For the compound `Nc1nc2c(c(N3CCN(C(=O)c4cccs4)CC3)n1)CCCC2`, the cytotoxicity at 70.5 h is -2.27%.

With `CCNC(=O)[C@@H]1C[C@H](NC(=O)c2ccc(C)s2)CN1Cc1ccc(C)o1`, the cytotoxicity at 70.5 h came to 16.1%.

`O=C(CNCc1ccccc1Cn1cccn1)Nc1cnccn1`: the cytotoxicity at 70.5 h is -9.54%.

Regarding `CN(C)C[C@@H]1CN(C(=O)Cc2ccc3ccccc3c2)C[C@@H]1CO`, the cytotoxicity at 70.5 h is -8.64%.

On to `Cc1ccc(-c2nc(CN3C[C@@H](C)NC[C@@H]3C)c(C)o2)s1`, for which the cytotoxicity at 70.5 h is -11.5%.

For the compound `CCN(CCO)C[C@@H]1CN(c2cc(C(F)(F)F)cc(C)n2)C[C@@H]1CO`, the cytotoxicity at 70.5 h is -8.43%.

For the compound `COc1cc(C(C)=O)ccc1OC12CCCN(CC1)C2` (centres undefined), the cytotoxicity at 70.5 h is 12.8%.

Turning to `COc1ccc(CN2CCCC(N3CCCC3)C2)cc1Cn1cncn1` (centres undefined), the cytotoxicity at 70.5 h was determined as 10.6%.

`COc1cccc(N2CCN(C(=O)C(O)CC(C)C)CC2=O)c1` (centres undefined): the cytotoxicity at 70.5 h is -2.41%.

For `Cn1cc(CNCC2(N3CCCCC3)Cc3ccccc3C2)cn1`, the cytotoxicity at 70.5 h is -4.33%.

`Cc1cccc(-c2nc(N)nc3c2CN(C(=O)C2CCCC2)C3C)c1` (centres undefined): the cytotoxicity at 70.5 h was -18.6%.

In the case of `Cc1cnccc1N1CCCN(C(=O)CCCn2ccnc2C)CC1`, the cytotoxicity at 70.5 h is -6.13%.

Take `CCc1cnc(N)nc1NCCc1ccc(OC)cc1OC`: the cytotoxicity at 70.5 h was -0.653%.

Regarding `c1ccc2c(c1)CN(c1ncnc3sc4c(c13)CCNC4)CCO2`, the cytotoxicity at 70.5 h stood at 0.0341%.

For `Clc1cc(N2CCN3CCCCC3C2)nc2[nH]ccc12` (centres undefined), the cytotoxicity at 70.5 h is -0.311%.

In the case of `CSc1ccc(C(C(=O)O)N2CCC(CO)CC2)cc1` (centres undefined), the cytotoxicity at 70.5 h is 25.1%.

For the compound `COc1cc(CN(Cc2ccccn2)CC(C)C)cc2c1OCO2`, the cytotoxicity at 70.5 h was -0.968%.

As to `COc1ccccc1C(O)CNc1nccc(-c2ccc(C)nc2C)n1` (centres undefined), the cytotoxicity at 70.5 h is -14%.

For the compound `CCc1nc(CCNS(=O)(=O)c2cccc(C(=O)N(C)CC)c2)cs1`, the cytotoxicity at 70.5 h is -16%.

`CCn1ccnc1CN1CCN(Cc2ccc(C)o2)[C@@H]2CS(=O)(=O)C[C@@H]21`: the cytotoxicity at 70.5 h was -4.31%.

Take `C[C@@H]1CN(C(=O)c2cn(CCN3CCCCC3)nn2)C[C@H](C)O1`: the cytotoxicity at 70.5 h is -0.236%.

Take `CCC[C@H]1CN(c2cncc(C(=O)N3CCCCC3)n2)C[C@@H]1N(C)C`: the cytotoxicity at 70.5 h was -3.35%.

In the case of `CCc1c(C)nc(C)nc1N1C[C@@H](CN(C)CCN(C)C)[C@@H](CO)C1`, the cytotoxicity at 70.5 h was -9.98%.

Take `CCc1noc(CN(CC)Cc2cc3ccc(C)cc3[nH]c2=O)n1`: the cytotoxicity at 70.5 h was 7.76%.

On to `C[C@@H]1CN(c2nc3c(cc2C(N)=O)CCC3)C[C@@]1(O)C1CCC1`, for which the cytotoxicity at 70.5 h was -11.3%.

In the case of `Cc1c(C(=O)N2CCC3(CCCNC3=O)C2)sc2nc[nH]c(=O)c12` (centres undefined), the cytotoxicity at 70.5 h was -7.46%.

`CC(C)c1nnsc1CNC(=O)C1CCN(C(=O)C2CCC2)CC1`: the cytotoxicity at 70.5 h was -5.12%.

For the compound `Cc1ccc(C)c2c(O)cc(CNCC(=O)N3CCCC3)nc12`, the cytotoxicity at 70.5 h was 22%.

With `CCCc1cncnc1N1CCC2(CCC(=O)N(CCCO)C2)CC1`, the cytotoxicity at 70.5 h is -10.1%.

With `Cc1nccn1CCCN1CCC2(CCC(=O)N(CC3CC3)C2)CC1`, the cytotoxicity at 70.5 h was -7.09%.

`COCC(=O)N1CCC2(CCCN(Cc3ccc(Cl)cc3)CC2)CC1`: the cytotoxicity at 70.5 h turned out to be 44.6%.

Consider `Oc1cccc(CN2C[C@H]3CC[C@@H]2CN(Cc2ccncc2)C3)c1`, for which the cytotoxicity at 70.5 h is -12.3%.

Consider `CCCn1ncc(CN(Cc2cccnc2)Cc2ccsc2)c1C`, for which the cytotoxicity at 70.5 h was 16.8%.

As for `CO[C@H]1C[C@@H](O)C12CCN(CCCOc1ccc(C(N)=O)cc1)CC2`, the cytotoxicity at 70.5 h is -2.22%.

As for `COc1ccc2c(c1)OCC(CNC(=O)c1cnc(O)cn1)C2` (centres undefined), the cytotoxicity at 70.5 h is -3.99%.

With `Cc1ccsc1[C@@H]1CCN(C(=O)CCCn2cncn2)C[C@H]1O`, the cytotoxicity at 70.5 h was -7.81%.

Turning to `CNc1nc(N2CCN(C)C(CCO)C2)nc2c1CCC2` (centres undefined), the cytotoxicity at 70.5 h is 2.44%.

In the case of `COCC(=O)N1CCC2(CC1)c1ccccc1[C@@H](N1CCSCC1)[C@@H]2O`, the cytotoxicity at 70.5 h came to 4.64%.

Take `Cc1cnc(C)c(Oc2ccc(Cl)c(CN3CCCC3)c2Cl)n1`: the cytotoxicity at 70.5 h was found to be 18.5%.

With `O=C(c1ccc(-n2cnnc2)nc1)N1CCCC(O)(CO)CC1` (centres undefined), the cytotoxicity at 70.5 h is -22.7%.

With `CC(C)c1nnsc1CN1CCc2[nH]nc(-c3ccc(F)c(F)c3)c2C1`, the cytotoxicity at 70.5 h is -11.6%.

`Cc1cc(N2CCN(Cc3ccsc3)C(CCO)C2)nc(N)n1` (centres undefined): the cytotoxicity at 70.5 h was -6.22%.

On to `CN(Cc1ccncc1)CC1CCCN(CCc2ccc(Cl)cc2)C1` (centres undefined), for which the cytotoxicity at 70.5 h is -0.313%.

On to `CN(C)C(=O)c1ccc(-c2cccc3c2CCNC3)o1`, for which the cytotoxicity at 70.5 h is -5.11%.

Consider `CCc1nnsc1C(=O)NCCC1CCCN(C(C)C)C1` (centres undefined), for which the cytotoxicity at 70.5 h was determined as 24.8%.

As for `Cc1cnn(C2(C(=O)O)CCN(c3ccnc4cc(Cl)ccc34)CC2)c1`, the cytotoxicity at 70.5 h was -5.05%.

In the case of `Cc1ccc2nc(C3CCCN3Cc3csc(C)n3)[nH]c2c1` (centres undefined), the cytotoxicity at 70.5 h is -6.25%.

Regarding `COc1ccc(Cn2cc(C(=O)N(C)Cc3ccon3)nn2)cc1`, the cytotoxicity at 70.5 h is -3.92%.

On to `Cc1ccc2nc(C(=O)N3C[C@@H](C(=O)O)[C@H](c4ccccc4)C3)cn2c1`, for which the cytotoxicity at 70.5 h was -8.12%.

On to `COCCC(=O)N1CCCCC1c1ccc(F)cc1` (centres undefined), for which the cytotoxicity at 70.5 h is 5.22%.

Turning to `CCc1nc(N2CCC3(CC2)CC(=O)N(Cc2ccc(Cl)cc2)C3)no1`, the cytotoxicity at 70.5 h is -10.7%.

As for `Cc1nc2c(c(NCCc3nccs3)n1)CCN(CC1CC1)CC2`, the cytotoxicity at 70.5 h is -14.3%.

On to `Cc1cccc(CN2CCC3(CCC(CC(=O)N(C)C)CC3)CC2)n1`, for which the cytotoxicity at 70.5 h was -8.22%.

As for `CC(C)N1CCOCC2(CCN(c3cnccn3)CC2)C1`, the cytotoxicity at 70.5 h was -11.1%.

With `Cc1ccc(CN2CCC3(CCCN3S(C)(=O)=O)CC2)s1`, the cytotoxicity at 70.5 h is -11.8%.

On to `Cc1ccc(CN2CCCC3(CCCC(=O)N3C)C2)s1` (centres undefined), for which the cytotoxicity at 70.5 h is -9.33%.

For the compound `O=C(c1ccccn1)N1CCC2(CCCN(c3nncs3)C2)C1` (centres undefined), the cytotoxicity at 70.5 h was -9.42%.

In the case of `CN(Cc1ccccn1)C1CCC[C@@H]2CN(CC3CC3)C[C@H]12` (some centres undefined), the cytotoxicity at 70.5 h stood at 17.7%.

For `C[C@@H]1CN(C2CCOC2)C[C@]12CCN(Cc1cccnc1)C2=O` (some centres undefined), the cytotoxicity at 70.5 h is -10.6%.

In the case of `CN1CCN(Cc2cccnc2)C(=O)C12CCN(CC1CCOC1)CC2` (centres undefined), the cytotoxicity at 70.5 h is -6.06%.
